Values after ≈ are worked out from the molar mass of the structure shown.

Usually MIC stands for the lowest concentration found to suppress growth. A higher MIC goes with a need for much substance.

Experiment [1] has as its system Mycobacterium tuberculosis. Briefly: Antimicrobial activity against multidrug-resistant Mycobacterium tuberculosis isolate by alamar blue assay. In kind it is functional. For orientation: Resazurin is reduced to fluorescent resorufin, in cell work by metabolically active cells.
For experiment [2], the system named is Mycobacterium tuberculosis. Briefly: Antimicrobial activity against isoniazid-resistant Mycobacterium tuberculosis isolate by alamar blue assay. The experiment is classed as functional.

Turning to `CC1(C)CC[C@]23CO[C@@]4(CC[C@@H]5[C@@]6(C)CC[C@H](O)C(C)(C)[C@@H]6CC[C@@]5(C)[C@]4(C)CC2=O)[C@@H]3C1` [AEGICERIN], the MIC in experiment [1] and in experiment [2] was 1.6 µg/mL (≈ 3.5 µM) in each case.

Turning to `NNC(=O)c1ccncc1` [ISONIAZID], the results for the minimal inhibitory concentration (MIC) in experiment [1] and in experiment [2] were greater than 4 µg/mL and 2 µg/mL (≈ 14.6 µM), respectively.

For the compound `CC1(C)CC[C@]23CO[C@@]4(CC[C@@H]5[C@@]6(C)CC[C@H](O)C(C)(C)[C@@H]6CC[C@@]5(C)[C@]4(C)C[C@H]2O)[C@@H]3C1` [PROTOPRIMULAGENIN A], the MIC in experiment [1] and in experiment [2] was 200 µg/mL (≈ 436 µM) throughout.

On to `CO[C@H]1/C=C/O[C@@]2(C)Oc3c(C)c(O)c4c(O)c(c(/C=N/N5CCN(C)CC5)c(O)c4c3C2=O)NC(=O)/C(C)=C\C=C\[C@H](C)[C@H](O)[C@@H](C)[C@@H](O)[C@@H](C)[C@H](OC(C)=O)[C@@H]1C` [RIFAMPIN], for which the MIC in experiment [1] is greater than 2 µg/mL; in experiment [2], 0.063 µg/mL (≈ 0.0766 µM).

These data come from ChEMBL document CHEMBL1157956, “Aegicerin, the first oleanane triterpene with wide-ranging antimycobacterial activity, isolated from Clavija procera” (J Nat Prod, 2006).
